How the values were obtained:
Type in all cases: cell-based
[1] = tested on: HS 578T; assay: NCI screen, growth of human tumor cells: Breast Cancer HS 578T; conditions: HS 578T (Breast Cancer), 10^−4 molar
Method in brief: (§1)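 At least 60 data points describe each compound tested by NCI. Cancer type, molar concentration in the screen and percent growth make up the recorded data.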

[2] = tested on: UACC-257; assay: NCI screen, growth of human tumor cells: Melanoma UACC-257
Method in brief: as §1

[3] = tested on: SR; assay: NCI screen, growth of human tumor cells: Leukemia SR; conditions: SR
Method in brief: as §1

[4] = tested on: SK-MEL-2; assay: NCI screen, growth of human tumor cells: Melanoma SK-MEL-2; conditions: SK-MEL-2 (Melanoma), 10^−4 molar
Method in brief: as §1

[5] = tested on: HT29; assay: NCI screen, growth of human tumor cells: Colon Cancer HT29; conditions: HT29 (Colon Cancer), 10^−4 molar
Method in brief: as §1

[6] = tested on: RPMI-8226; assay: NCI screen, growth of human tumor cells: Leukemia RPMI-8226; conditions: RPMI-8226 (Leukemia), 10^−4 molar
Method in brief: as §1

[7] = tested on: UACC-62; assay: NCI screen, growth of human tumor cells: Melanoma UACC-62; conditions: UACC-62 (Melanoma), 10^−4 molar
Method in brief: as §1

[8] = tested on: OVCAR-5; assay: NCI screen, growth of human tumor cells: Ovarian Cancer OVCAR-5
Method in brief: as §1

[9] = tested on: TK-10; assay: NCI screen, growth of human tumor cells: Renal Cancer TK-10; conditions: TK-10 (Renal Cancer), 10^−4 molar
Protocol: (§2) In the NCI screening process, each compound was tested and described by a minimum of 60 data points. The test data include, but are not limited to the type of cancer, the molar concentration used in the screen, and the percent growth of the cancer. In some cases, NMR and elemental analysis were used for structural assignment.

[10] = tested on: EKVX; assay: NCI screen, growth of human tumor cells: Non-Small Cell Lung EKVX; conditions: EKVX (Non-Small Cell Lung), 10^−4 molar
Method in brief: as §1

[11] = tested on: SF-539; assay: NCI screen, growth of human tumor cells: CNS Cancer SF-539; conditions: SF-539, 10^−4 molar
Method in brief: as §1

[12] = tested on: UO-31; assay: NCI screen, growth of human tumor cells: Renal Cancer UO-31; conditions: UO-31 (Renal Cancer), 10^−4 molar
Method in brief: as §1

[13] = tested on: MCF 7; assay: NCI screen, growth of human tumor cells: Breast Cancer MCF 7; conditions: MCF 7 (Breast Cancer), 10^−4 molar
Method in brief: as §1

[14] = tested on: DU-145; assay: NCI screen, growth of human tumor cells: Prostate Cancer DU-145; conditions: DV-145, 10^−4 molar
Method in brief: as §1

[15] = tested on: MOLT-4; assay: NCI screen, growth of human tumor cells: Leukemia MOLT-4; conditions: MOLT-4 (Leukemia), 10^−4 molar
Method in brief: as §1

[16] = tested on: OVCAR-8; assay: NCI screen, growth of human tumor cells: Ovarian Cancer OVCAR-8; conditions: OVCAR-8 (Ovarian Cancer), 10^−4 molar
Protocol: as §2

[17] = tested on: IGROVI; assay: NCI screen, growth of human tumor cells: Ovarian Cancer IGROVI; conditions: IGROVI (Ovarian Cancer), 10^−4 molar
Method in brief: as §1

[18] = tested on: HOP-92; assay: NCI screen, growth of human tumor cells: Non-Small Cell Lung HOP-92; conditions: HOP-92 (Non-Small Cell Lung), 10^−4 molar
Method in brief: as §1

[19] = tested on: M14; assay: NCI screen, growth of human tumor cells: Melanoma M14; conditions: M14, 10^−4 molar
Method in brief: as §1

[20] = tested on: SNB-19; assay: NCI screen, growth of human tumor cells: CNS Cancer SNB-19; conditions: SNB-19, 10^−4 molar
Method in brief: as §1

[21] = tested on: SK-MEL-5; assay: NCI screen, growth of human tumor cells: Melanoma SK-MEL-5; conditions: SK-MEL-5, 10^−4 molar
Method in brief: as §1

[22] = tested on: SNB-75; assay: NCI screen, growth of human tumor cells: CNS Cancer SNB-75; conditions: SNB-75 (CNS Cancer), 10^−4 molar
Method in brief: as §1

[23] = tested on: RXF-393; assay: NCI screen, growth of human tumor cells: Renal Cancer RXF-393; conditions: RXF-393 (Renal Cancer), 10^−4 molar
Method in brief: as §1

[24] = tested on: KM12; assay: NCI screen, growth of human tumor cells: Colon Cancer KM12; conditions: KM12 (Colon Cancer), 10^−4 molar
Method in brief: as §1

[25] = tested on: NCI-H460; assay: NCI screen, growth of human tumor cells: Non-Small Cell Lung NCI-H460; conditions: NCI-H460 (Non-Small Cell Lung), 10^−4 molar
Method in brief: as §1

[26] = tested on: human cancer cells; assay: NCI screen summary over the cancers tested (negative growth of human cancer cells); conditions: cancers with negative growth / cancers tested
Protocol: as §2
The derivatives in the tables are grouped using the same category as in the tables 1-6.

[27] = tested on: SK-OV-3; assay: NCI screen, growth of human tumor cells: Ovarian Cancer SK-OV-3; conditions: SK-OV-3 (Ovarian Cancer), 10^−4 molar
Protocol: as §2

[28] = tested on: MDA-MB-435; assay: NCI screen, growth of human tumor cells: Breast Cancer MDA-MB-435
Method in brief: as §1

[29] = tested on: K562; assay: NCI screen, growth of human tumor cells: Leukemia K562; conditions: K562 (Leukemia), 10^−4 molar
Method in brief: as §1

[30] = tested on: HCT-116; assay: NCI screen, growth of human tumor cells: Colon Cancer HCT-116; conditions: HCT-116, 10^−4 molar
Method in brief: as §1

[31] = tested on: MCF7/ADR-RES; assay: NCI screen, growth of human tumor cells: Breast Cancer MCF7/ADR-RES; conditions: MCF7/ADR-RES, 10^−4 molar
Method in brief: as §1

[32] = tested on: OVCAR-3; assay: NCI screen, growth of human tumor cells: Ovarian Cancer OVCAR-3; conditions: OVCAR-3 (Ovarian Cancer), 10^−4 molar
Method in brief: as §1

[33] = tested on: NCI-H322M; assay: NCI screen, growth of human tumor cells: Non-Small Cell Lung NCI-H322M; conditions: NCI-H322M, 10^−4 molar
Method in brief: as §1

[34] = tested on: CAKI-1; assay: NCI screen, growth of human tumor cells: Renal Cancer CAKI-1; conditions: CAKI-1 (Renal Cancer), 10^−4 molar
Method in brief: as §1

[35] = tested on: HOP-18; assay: NCI screen, growth of human tumor cells: Non-Small Cell Lung HOP-18; conditions: HOP-18 (Non-Small Cell Lung), 10^−4 molar
Method in brief: as §1

[36] = tested on: SN12C; assay: NCI screen, growth of human tumor cells: Renal Cancer SN12C; conditions: SN12C (Renal Cancer), 10^−4 molar
Method in brief: as §1

[37] = tested on: NCI-H23; assay: NCI screen, growth of human tumor cells: Non-Small Cell Lung NCI-H23; conditions: NCI-H23, 10^−4 molar
Method in brief: as §1

[38] = tested on: SF-268; assay: NCI screen, growth of human tumor cells: CNS Cancer SF-268; conditions: SF-268 (CNS Cancer), 10^−4 molar
Method in brief: as §1

[39] = tested on: HL-60 (TB); assay: NCI screen, growth of human tumor cells: Leukemia HL-60 (TB); conditions: HL-60 (TB) (Leukemia), 10^−4 molar
Protocol: as §2

[40] = tested on: HOP-62; assay: NCI screen, growth of human tumor cells: Non-Small Cell Lung HOP-62
Method in brief: as §1

[41] = tested on: BT-549; assay: NCI screen, growth of human tumor cells: Breast Cancer BT-549; conditions: BT-549 (Breast Cancer), 10^−4 molar
Method in brief: as §1

[42] = tested on: SK-MEL-28; assay: NCI screen, growth of human tumor cells: Melanoma SK-MEL-28; conditions: SK-MEL-28, 10^−4 molar
Method in brief: as §1

[43] = tested on: NCI-H226; assay: NCI screen, growth of human tumor cells: Non-Small Cell Lung NCI-H226; conditions: NCI-H226 (Non-Small Cell Lung), 10^−4 molar
Method in brief: as §1

[44] = tested on: COLO205; assay: NCI screen, growth of human tumor cells: Colon Cancer COLO205; conditions: COLO205 (Colon Cancer), 10^−4 molar
Method in brief: as §1

[45] = tested on: SF-295; assay: NCI screen, growth of human tumor cells: CNS Cancer SF-295; conditions: SF-295 (CNS Cancer), 10^−4 molar
Method in brief: as §1

SMILES: CC=CC(=O)C1(CC2=C(C)C(=O)c3ccccc3C2=O)S(=O)(=O)OCCOS1(=O)=O [NSC 731265]
- percent of growth of human tumor cells [1]: −18%
- % Growth ([2]; UACC-257, 10^−4 molar): −87%
- % Growth ([2]; UACC-257, 10^−5 molar): 40%
- % Growth ([3]; 10^−4 molar): 12%
- % Growth ([3]; 10^−5 molar): 15%
- % Growth ([3]; 10^−6 molar): 57%
- percent of growth of human tumor cells [4]: 15%
- percent of growth of human tumor cells [5]: −6%
- percent of growth of human tumor cells [6]: −40%
- percent of growth of human tumor cells [7]: −13%
- % Growth ([8]; OVCAR-5, 10^−4 molar): −83%
- % Growth ([8]; OVCAR-5, 10^−5 molar): 43%
- % Growth ([8]; OVCAR-5, 10^−6 molar): 34%
- % Growth ([8]; OVCAR-5, 10^−7 molar): 40%
- % Growth ([8]; OVCAR-5, 10^−8 molar): 63%
- percent of growth of human tumor cells [9]: −10%
- percent of growth of human tumor cells [10]: −57%
- % Growth [11]: −79%
- percent of growth of human tumor cells [12]: −10%
- percent of growth of human tumor cells [13]: −8%
- % Growth [14]: −78%
- percent of growth of human tumor cells [15]: 2%
- percent of growth of human tumor cells [16]: −38%
- percent of growth of human tumor cells [17]: 4%
- percent of growth of human tumor cells [18]: −43%
- % Growth [19]: −86%
- % Growth [20]: −87%
- % Growth [21]: −67%
- percent of growth of human tumor cells [22]: −26%
- percent of growth of human tumor cells [23]: −15%
- percent of growth of human tumor cells [24]: −16%
- percent of growth of human tumor cells [25]: 5%
- Percentage of cancers showing negative growth cancers tested ([26]; 10^−4 M conc.): 79%
- Percentage of cancers showing negative growth cancers tested ([26]; 10^−5 M conc.): 20%
- percent of growth of human tumor cells [27]: −61%
- % Growth ([28]; MDA-MB-435, 10^−4 molar): −71%
- % Growth ([28]; MDA-MB-435, 10^−5 molar): −66%
- percent of growth of human tumor cells [29]: 11%
- % Growth [30]: −100%
- % Growth [31]: −53%
- percent of growth of human tumor cells [32]: 7%
- % Growth [33]: −80%
- percent of growth of human tumor cells [34]: −2%
- percent of growth of human tumor cells [35]: −43%
- percent of growth of human tumor cells [36]: −17%
- % Growth [37]: −74%
- percent of growth of human tumor cells [38]: −49%
- percent of growth of human tumor cells [39]: 2%
- % Growth ([40]; HOP-62, 10^−4 molar): −80%
- % Growth ([40]; HOP-62, 10^−5 molar): 49%
- percent of growth of human tumor cells [41]: −54%
- % Growth [42]: −69%
- percent of growth of human tumor cells [43]: −4%
- percent of growth of human tumor cells [44]: −50%
- percent of growth of human tumor cells [45]: −57%
